Results on 28 compounds are retold here after patent US20070197523A1, “CALCIUM CHANNEL ANTAGONISTS” (ICAGEN, INC., priority 2005, published 2007).

This assay concerns T-type calcium channels. Kind of assay: T-type calcium channel inhibitory activity (fluorometric FLIPR Fluo-4 and whole cell patch clamp). The class given is cell-based, mammalian. The note with it: inhibition of T-type calcium channels; cells natively expressing or HEK-293 cells expressing recombinant channels. The method, then:
T-type calcium channel inhibitory activity of some compounds of the invention was evaluated using both fluorometric as well as electrophysiological measurement methodologies, which are known to those skilled in the art. Fluorescence measurement of changes in intracellular calcium due to entry of calcium through T-type calcium channels was assessed using calcium sensitive fluorescent dyes Fluo-4 and Fluo-3. In brief, cells natively expressing T-type channels or HEK-293 cells transiently or stably expressing recombinant mammalian T-type calcium channels grown in 96-well tissue culture plates in DMEM/High glucose, Hyclone, Fetal Bovine Serum (10%), and 2 mM sodium pyruvate 2 mM (and for cells lines recombinantly expressing T-type calcium channels, G418 @ 400 mg/liter) were loaded with 4 μM Fluo-4 made up in Earls Balanced Salt Solution (EBSS). After incubation for 30 minutes at room temperature, cells were washed with low calcium (0.5 mM) EBSS to remove extracellular Fluo-4. Baseline fluorescence was measured in a FLIPR (FLuorescence Image Plate Reader) (Molecular Devices Inc) after applying test compounds at desired concentration for 5-10 minutes. The effect of test compound on calcium entry was assessed by monitoring changes in Fluo-4 fluorescence following an elevation of extracellular calcium concentration from 0.5 mM to 5 mM. […] Native cells natively expressing T-type channels or HEK-293 cells transiently or stably expressing recombinant mammalian T-type calcium channels were grown in DMEM/High glucose, Hyclone, Fetal Bovine Serum (10%), 2 mM sodium pyruvate 2 mM (and for cells lines recombinantly expressing T-type calcium channels, G418 @ 400 mg/liter) on glass coverslips in 35 mm tissue culture dishes. Experiments were performed by placing T-type calcium channels expressing cells in a recording chamber perfused with EBSS (which contains (in mM): 132 NaCl, 5.4 KCl, 1.8 CaCl2, 0.8 MgCl2, 10 Hepes, 5 glucose, pH 7.4 with NaOH) on the stage of an inverted microscope. Electrical currents were measured using the whole cell configuration of the patch clamp technique (Axopatch 200B, Axon Instruments (Molecular Devices) (see Hamill et al (1981) Pflugers Arch. 1981 391:85-100) using 2-2.5 MOhm resistance glass pipettes filled with 135 CsF, 5 CsCl, 5 NaCl, 5 EGTA, 10 HEPES, pH 7.3 with CsOH, Osmolarity ˜288 mOsm. Test compound effects were typically assessed under conditions in which approximately half of the available channels were inactivated either by an 8 second conditioning depolarization from a holding potential of −100 mV to a potential ranging from −70 mV to −60 mV or by continually holding the membrane potential at −70 mV. Test compounds were assessed for their ability to reduce the amplitude of the inward T-type calcium current elicited by a 100 ms step depolarization −20 or −30 mV.
(Patch clamp records ionic current or voltage across a cell membrane.)

The term IC50 denotes the concentration that inhibits the measured activity by half. In the case of `CCOc1cccc(S(=O)(=O)c2cnc(Nc3nc(C)nc(NCC(C)(C)N)c3F)s2)c1` [Example 14, N-(2-Amino-2-methyl-propyl)-N′-[5-(3-ethoxy-benzenesulfonyl)-thiazol-2-yl]-5-fluoro-2-methyl-pyrimidine-4,6-diamine], the concentration for half-maximal inhibition (IC50) fell in the range of 0.001 to 1 µM.

Take `CCOc1cccc(S(=O)(=O)c2cnc(Nc3cc(NCCN(C)C)nc(C)n3)s2)c1` [Example 8, N-(2-Dimethylamino-ethyl)-N′-[5-(3-ethoxy-benzenesulfonyl)-thiazol-2-yl]-2-methyl-pyrimidine-4,6-diamine]: the IC50 fell in the range of 0.001 to 1 µM.

On to `CCOc1cccc(S(=O)(=O)c2cnc(Nc3cc(NCCOC)ncn3)s2)c1` [Example 4, N-[5-(3-Ethoxy-benzenesulfonyl)-thiazol-2-yl]-N′-(2-methoxy-ethyl)-pyrimidine-4,6-diamine], for which the IC50 lay in the range of 1 to 10 µM.

As to `CCOc1cccc(S(=O)(=O)c2cnc(Nc3cc(CCC(C)(C)N)nc(C)n3)s2)c1` [Example 36, [6-(3-Amino-3-methyl-butyl)-2-methyl-pyrimidin-4-yl]-[5-(3-ethoxy-benzenesulfonyl)-thiazol-2yl]-amine], the IC50 was in the range of 0.001 to 1 µM.

Regarding `CCOc1cccc(S(=O)(=O)c2cnc(Nc3cc(NCC4(N)CCCCC4)nc(C)n3)s2)c1` [Example 11, N-(1-Amino-cyclohexylmethyl)-N′-[5-(3-ethoxy-benzenesulfonyl)-thiazol-2-yl]-2-methyl-pyrimidine-4,6-diamine], the IC50 was in the range of 0.001 to 1 µM.

With `CCOc1cccc(S(=O)(=O)c2cnc(Nc3cc(OCCN(C)C)nc(C(F)(F)F)n3)s2)c1` [Example 28, [6-(2-Dimethylamino-ethoxy)-2-trifluormethyl-pyrimidin-4-yl]-[5-(3-Ethoxy-benzenesulfonyl)-thiazol-2-yl]-amine], the IC50 was 0.001 to 1 µM.

Turning to `CCOc1cccc(S(=O)(=O)c2cnc(Nc3nc(C)nc(NCCN4CCCC4)c3F)s2)c1` [Example 12, N-[5-(3-Ethoxy-benzenesulfonyl)-thiazol-2-yl]-5-fluoro-2-methyl-N′-(2-pyrrolidin-1-yl-ethyl)-pyrimidine-4,6-diamine], the IC50 lay in the range of 0.001 to 1 µM.

In the case of `CCOc1cccc(S(=O)(=O)c2cnc(Nc3cc(CCCOC)nc(C)n3)s2)c1` [Example 32, [5-(3-Ethoxy-benzenesulfonyl)-thiazol-2-yl]-[6-(3-methoxy-propyl)-2-methyl-pyrimidin-4-yl]-amine], the half-maximal inhibitory concentration (IC50) lay in the range of 0.001 to 1 µM.

As to `CCOc1cccc(S(=O)(=O)c2cnc(Nc3cc(C#CCOC)nc(C)n3)s2)c1` [Example 29, [5-(3-Ethoxy-benzenesulfonyl)-thiazol-2-yl]-[6-(3-methoxy-prop-1-ynyl)-2-methyl-pyrimidin-4-yl]-amine], the IC50 lay within 1 to 10 µM.

For `CCOc1cccc(S(=O)(=O)c2cnc(Nc3cc(NCCOC)nc(C(F)(F)F)n3)s2)c1` [Example 17, N-[5-(3-ethoxy-benzenesulfonyl)-thiazol-2-yl]-N′-(2-methoxy-ethyl)-2-trifluoromethyl-pyrimidine-4,6-diamine], the IC50 lay in the range of 0.001 to 1 µM.

`CCOc1cccc(S(=O)(=O)c2cnc(Nc3nc(C)nc(OCCN4CCCC4)c3F)s2)c1` [Example 24, [5-(3-Ethoxy-benzenesulfonyl)-thiazol-2-yl]-[5-fluoro-2-methyl-6-(2-pyrrolidin-1-yl-ethoxy)-pyrimidin-4-yl]-amine]: the IC50 is 0.001 to 1 µM.

For the compound “[5-(3-Ethoxy-benzenesulfonyl)-thiazol-2-yl]-[6-(3-methylamino)propyl)-2-methyl-pyrimidin-4-yl]-amine [Example 35]”, the IC50 is 0.001 to 1 µM.

Take `CCOc1cccc(S(=O)(=O)c2cnc(Nc3cc(NCCN4CCCC4)nc(C(F)(F)F)n3)s2)c1` [Example 16, N-[5-(3-Ethoxy-benzenesulfonyl)-thiazol-2-yl]-N′-(2-pyrrolidin-1-yl-ethyl)-2-trifluoromethyl-pyrimidine-4,6-diamine]: the IC50 was 0.001 to 1 µM.

Consider `CCOc1cccc(S(=O)(=O)c2cnc(Nc3cc(OC4CCNC4)nc(C)n3)s2)c1` (stereo not shown) [Example 22, N-[5-(3-ethoxy-benzenesulfonyl)-thiazol-2-yl]-[2-methyl-6-(pyrrolidin-3-yloxy)pyrimidin-4-yl]-amine], for which the IC50 was in the range of 0.001 to 1 µM.

Take `CCOc1cccc(S(=O)(=O)c2cnc(Nc3cc(NCCN(C)C)ncn3)s2)c1` [Example 3, N-(2-Dimethylamino-ethyl)-N′-[5-(3-ethoxy-benzenesulfonyl)-thiazol-2-yl]-pyrimidine-4,6-diamine]: the IC50 fell in the range of 0.001 to 1 µM.

Regarding `CCOc1cccc(S(=O)(=O)c2cnc(Nc3nc(C)nc(OCCN(C)C)c3F)s2)c1` [Example 27, [6-(2-Dimethylamino-ethoxy)-5-fluoro-2-methyl-pyrimidn-4-yl]-[5-(3-ethoxy-benzenesulfonyl)-thiazol-2-yl]-amine], the IC50 is 0.001 to 1 µM.

In the case of `CCOc1cccc(S(=O)(=O)c2cnc(Nc3cc(C#CCN(C)C(=O)OC(C)(C)C)nc(C)n3)s2)c1` [Example 30, (3-{6-[5-(3-Ethoxy-benzenesulfonyl)-thiazol-2ylamino]-2-methyl-pyrimidin-4-yl}-prop-2-ynyl)-methyl-carbamic acid tert-butyl ester], the IC50 lay in the range of 0.001 to 1 µM.

For `CCOc1cccc(S(=O)(=O)c2cnc(Nc3cc(NCC[C@H]4CCNC4)nc(C)n3)s2)c1` [Example 10, N-[5-(3-ethoxy-benzenesulfonyl)-thiazol-2-yl]-2-methyl-N′-(R)-(pyrrolidin-3-yl-ethyl)-pyrimidine-4,6-diamine], the IC50 lay within 0.001 to 1 µM.

Consider `CCOc1cccc(S(=O)(=O)c2cnc(Nc3cc(OCCN4CCCC4)nc(C)n3)s2)c1` [Example 20, [5-(3-Ethoxy-benzenesulfonyl)-thiazol-2-yl]-[2-methyl-6-(2-pyrrolidin-1-yl-ethoxy)-pyrimidin-4-yl]-amine], for which the IC50 fell in the range of 0.001 to 1 µM.

Take `CCOc1cccc(S(=O)(=O)c2cnc(Nc3nc(C)nc(N(C)CCOC)c3F)s2)c1` [Example 13, N-[5-(3-ethoxy-benzenesulfonyl)-thiazol-2-yl]-5-fluoro-N′-(2-methoxy-ethyl)-2, N′-dimethyl-pyrimidine-4,6-diamine]: the IC50 was 0.001 to 1 µM.

For `CCOc1cccc(S(=O)(=O)c2cnc(Nc3cc(NCCOC)nc(C)n3)s2)c1` [Example 7, N-[5-(3-ethoxy-benzenesulfonyl)-thiazol-2-yl]-N′-(2-methoxy-ethyl)-2-methyl-pyrimidine-4,6-diamine], the IC50 is 1 to 10 µM.

For the compound `CCOc1cccc(S(=O)(=O)c2cnc(Nc3nc(C)nc(OCCC4CCCC4)c3F)s2)c1` [Example 26, [6-(2-Cyclopentyl-ethoxy)-5-fluoro-2-methyl-pyrimidn-4-yl]-[5-(3-ethoxy-benzenesulfonyl)-thiazol-2-yl]-amine], the concentration for half-maximal inhibition (IC50) is 10 to 1000 µM.

Take `CCOc1cccc(S(=O)(=O)c2cnc(Nc3nc(C)nc(OCCOC)c3F)s2)c1` [Example 25, N-[5-(3-ethoxy-benzenesulfonyl)-thiazol-2-yl]-[5-fluoro-6-(2-methoxy-ethoxy)-2-methyl-pyrimidin-4-yl]-amine]: the IC50 is 0.001 to 1 µM.

Regarding `CCOc1cccc(S(=O)(=O)c2cnc(Nc3cc(OC[C@H]4CCCN4)nc(C)n3)s2)c1` [Example 21, N-[5-(3-ethoxy-benzenesulfonyl)-thiazol-2-yl]-[2-methyl-((6R)-1-pyrrolidin-2-yl-methoxy)pyrimidin-4-yl]-amine], the IC50 lay in the range of 0.001 to 1 µM.

Regarding `CCOc1cccc(S(=O)(=O)c2cnc(Nc3cc(NCCN4CCCC4)ncn3)s2)c1` [Example 2, N-(2-Pyrrolidin-1-ethyl)-N′-[5-(3-ethoxy-benzenesulfonyl)-thiazol-2-yl]-pyrimidine-4,6-diamine], the 50% inhibitory concentration (IC50) lay in the range of 0.001 to 1 µM.

For `CCOc1cccc(S(=O)(=O)c2cnc(Nc3cc(NCC(C)(C)N)nc(C(F)(F)F)n3)s2)c1` [Example 18, N-(2-Amino-2-methyl-propyl)-N′-[5-(3-ethoxy-benzenesulfonyl)-thiazol-2-yl]-2-trifluoromethyl-pyrimidine-4,6-diamine], the IC50 was in the range of 0.001 to 1 µM.

Consider `CCOc1cccc(S(=O)(=O)c2cnc(NC(=O)Cc3ccc(OC)c(OC)c3)s2)c1` [Example 1, 2-(3,4-Dimethoxy-phenyl)-N-[5-(3-ethoxy-benzenesulfonyl)-thiazol-2-yl]-acetamide], for which the IC50 lay within 0.001 to 1 µM.

As to `CCOc1cccc(S(=O)(=O)c2cnc(Nc3cc(OCCOC)nc(C)n3)s2)c1` [Example 23, N-[5-(3-ethoxy-benzenesulfonyl)-thiazol-2-yl]-[6-(2-methoxy-ethoxy)-2-methyl-pyrimidin-4-yl]-amine], the concentration for half-maximal inhibition (IC50) is 0.001 to 1 µM.
